Measured values as given in paper PMC11961695 (Annals of oncology : official journal of the European …, 2022).
Entries after “also recorded” stand apart in the source; their conditions may differ. Where two headings read alike, the source gives them in different places.

Columns and labels:
[1] = FIGHT-101 safety and tolerability
[2] = test system: refractory advanced malignancies with and without FGF/FGFR alterations; test: FIGHT-101 tumor response per investigator
[3] = FIGHT-101 clinical pharmacokinetics
serum phosphate = test: Serum phosphate pharmacodynamics and Emax exposure-response model; details: in vivo
[4] = test system: locally advanced or metastatic cholangiocarcinoma; details: cited from earlier work
[5] = all treated patients, any grade
[6] = cholangiocarcinoma with FGFR2 fusions or rearrangements (13 patients)
[7] = FIGHT-202, FGFR2 fusions or rearrangements

For `CCN1C(=O)N(c2c(F)c(OC)cc(OC)c2F)Cc2cnc3[nH]c(CN4CCOCC4)cc3c21` [pemigatinib], the Dose-limiting toxicities ([1]; 1–20 mg QD, ID or CD, cycle 1) was “No dose-limiting toxicities were reported; also recorded: No DLTs were reported in any dose cohort; also recorded: No DLTs were encountered”, the “Clinically notable TEAEs” value ([1]; CD) was 86.2% and the “Dose interruptions due to TEAEs” value ([1]; CD) was 74.1%. The “Dose reductions due to TEAEs” value ([1]; CD) was 17.2%, the “Fatigue, grade ≥3 TEAE” value ([1]; CD) was 15.5% and the “Grade ≥3 TEAEs” value ([1]; CD) was 75.9%. For the same compound, the “Grade ≥3 hyponatremia” value ([1]; CD) was 10.3%, the “Grade ≥3 stomatitis” value ([1]; CD) was 17.2% and the “Hyperphosphatemia, any-cause TEAE” value ([1]; CD) was 82.8%. For the same compound, the Hypophosphatemia events ([1]; CD) was 12.1%, the “Treatment discontinuations due to TEAEs” value ([1]; CD) was 12.1% and the “Clinically notable TEAEs” value ([1]; ID) was 77.1%. The “Dose interruptions due to TEAEs” value ([1]; ID) was 32.9%, the “Dose reductions due to TEAEs” value ([1]; ID) was 5.7% and the “Fatigue, grade ≥3 TEAE” value ([1]; ID) was 5.7%. For the same compound, the “Grade ≥3 TEAEs” value ([1]; ID) was 50.0%, the “Grade ≥3 hyponatremia” value ([1]; ID) was 7.1% and the “Grade ≥3 stomatitis” value ([1]; ID) was 1.4%. For the same compound, the “Hyperphosphatemia, any-cause TEAE” value ([1]; ID) was 68.6%, the Hypophosphatemia events ([1]; ID) was 18.6% and the “Treatment discontinuations due to TEAEs” value ([1]; ID) was 8.6%. The “TEAEs of dry eye” value ([1]; all patients) was 23.4%, the “TEAEs of eyelash changes” value ([1]; all patients) was 13.3% and the “TEAEs of serous retinal detachment” value ([1]; all patients) was “no TEAEs of serous retinal detachment; also recorded: no serous retinal detachment events were reported”. For the same compound, the “TEAEs of vision blurred” value ([1]; all patients) was 16.4%, the “TEAEs of vitreous detachment” value ([1]; all patients) was 1.6% and the “Clinically notable TEAEs” value ([1]; all treated patients) was 81.3%. For the same compound, the “Dose interruption due to hypophosphatemia” value ([1]; all treated patients) was 1.6%, the “Dose interruption due to nail toxicities” value ([1]; all treated patients) was 7.8% and the “Dose interruption for hyperphosphatemia” value ([1]; all treated patients) was 9.4%. For the same compound, the “Dose reduction due to nail toxicities” value ([1]; all treated patients) was 0.8%, the “Dose reduction for hyperphosphatemia” value ([1]; all treated patients) was 1.6% and the “Dose reductions due to hypophosphatemia” value ([1]; all treated patients) was “none required dose reductions”. For the same compound, the “Fatigue, grade ≥3 TEAE” value ([1]; all treated patients) was 10.2%, the “Hyperphosphatemia requiring dose interruption” value ([1]; all treated patients) was 12 n and the “Hyperphosphatemia, grade ≥3” value ([1]; all treated patients) was 2.3%. For the same compound, the Nail discoloration ([1]; all treated patients) was 13.3%, the Onycholysis ([1]; all treated patients) was 14.8% and the Paronychia ([1]; all treated patients) was 10.2%. The “Patients with TEAE-related treatment discontinuation” value ([1]; all treated patients) was 10.2%, the “Patients with a TEAE” value ([1]; all treated patients) was 99.2% and the “Patients with dose interruption due to TEAEs” value ([1]; all treated patients) was 51.6%. The “Patients with dose reduction due to TEAEs” value ([1]; all treated patients) was 10.9%, the “Treatment-related TEAE” value ([1]; all treated patients) was 90.6% and the “Hyperphosphatemia, any-cause TEAE” value ([1]; all treated patients (N = 128), any grade) was 75%. The “Stomatitis requiring dose reduction” value ([1]; all treated patients (all CD)) was 4 n, the Pneumonia requiring discontinuation ([1]; all treated patients (both ID)) was 2 n and the “Small intestinal obstruction requiring discontinuation” value ([1]; all treated patients (both ID)) was 2 n. The “Hyperphosphatemia, treatment-related TEAE” value [1, 5] was 73.4%, the Hypophosphatemia events [1, 5] was 15.6% and the Nail toxicities [1, 5] was 32.0%. For the same compound, the “Hyperphosphatemia, treatment-related TEAE” value ([1]; all treated patients, grade ≥3) was 1.6%, the Hypophosphatemia events ([1]; all treated patients, grade ≥3) was 5.5% and the Nail toxicities ([1]; all treated patients, grade ≥3) was 3.1%. For the same compound, the “Treatment discontinuations resulting from clinically notable TEAEs” value ([1]; grade 3 paronychia (20 mg CD), grade 2 trichiasis (13.5 mg CD)) was “two”, the “Permanent treatment discontinuation due to hyperphosphatemia” value ([1]; in vivo) was “None of the hyperphosphatemia events resulted in permanent treatment discontinuation” and the “Relation of deaths due to TEAEs to treatment” value ([1]; in vivo) was “None of these deaths were considered treatment-related”. For the same compound, the Maximum tolerated dose ([1]; monotherapy, 1–20 mg QD) was “not reached”, the Stable disease ([2]; FGF amplification) was 20% and the Stable disease ([2]; FGFR amplification) was 26.9%. For the same compound, the Stable disease ([2]; FGFR fusions or rearrangements) was 50%, the “Median PFS” value ([2]; FGFR fusions or rearrangements (n = 20)) was 5.7 months and the Stable disease ([2]; FGFR mutations) was 23.1%. For the same compound, the “Median PFS” value ([2]; FGFR mutations (n = 13)) was 5.0 months, the “Time to disease progression, individual patient” value ([2]; adenoid cystic carcinoma of the head and neck, 9 mg QD (CD)) was 20.5 months and the “Time on treatment to PR, individual patient” value ([2]; adenoid cystic carcinoma of the head and neck, 9 mg QD (CD), no FGF/FGFR alterations) was 6.0 months. For the same compound, the Disease progression ([2]; all patients (N = 128)) was 38.3%, the “Median PFS” value ([2]; all patients (N = 128)) was 2.8 months and the Partial response ([2]; all patients (N = 128)) was 9.4%. The “Partial responses achieved, number” value ([2]; all patients (N = 128)) was 12, the Stable disease ([2]; all patients (N = 128)) was 31.3% and the “Median duration of response” value ([2]; all responders (n = 12)) was 7.3 months. The Partial response [2, 6] was 23.1%, the Stable disease [2, 6] was 61.5% and the “Duration of response, individual patient” value ([2]; cholangiocarcinoma, FGFR2-CCDC6 fusion) was 11.3 months. For the same compound, the “Time on treatment to PR, individual patient” value ([2]; non-small-cell lung cancer, 9 mg QD (CD), FGF/FGFR status unknown) was 6.2 months, the “Duration of response, individual patient” value ([2]; non-small-cell lung cancer, 9 mg QD (CD), ongoing at database lock) was 29.9 months and the “Duration of response, individual patient” value ([2]; pancreatic cancer, FGFR2-USP33 fusion) was 10.7 months. It also gave a Stable disease ([2]; patients with FGF/FGFR alterations) of 30.4%, an ORR ([2]; patients with FGFR fusions or rearrangements) of 25.0% and an ORR ([2]; patients with FGFR mutations) of 23.1%. The “Best median percentage change in target lesion size” value ([2]; patients with SD and FGF/FGFR alterations (n = 24)) was −8.0%, the “Median PFS” value ([2]; positive for FGF/FGFR alterations (n = 79)) was 3.0 months and the “Increase in average per-cycle exposure, CD versus ID regimen” value ([3]; 13.5 mg QD) was 50%. For the same compound, the “Dose proportionality of steady-state Cmax and AUC0–24” value ([3]; 1–20 mg QD) was “dose-proportional increases”, the “Effect of a high-fat and high-calorie meal on pharmacokinetics” value ([3]; human, in vivo) was “modest effects on pemigatinib pharmacokinetics that were not considered clinically meaningful” and the half-life ([3]; human, in vivo, Steady-state geometric mean terminal-phase disposition half-life, doses ≥6 mg QD) was 12.1 to 15.4 h. For the same compound, the Pharmacologically active doses (serum phosphate) was no less than 4 mg, the Disease control rate [4, 7] was 82% and the “Estimated median OS” value [4, 7] was 17.5 months. For the same compound, the ORR [4, 7] was 35.5%, the Disease control rate ([4]; FIGHT-202, no FGF/FGFR alterations) was 22% and the Disease control rate ([4]; FIGHT-202, other FGF/FGFR alterations) was 40%.
